Experimental data as given in publication PMC11940343, “In Vitro and In Vivo Evaluation of the De Novo Designed Antimicrobial Peptide P6.2 Against a KPC-Producing P. aeruginosa Clinical Isolate” (Biomolecules, 2025).
No end group written: not given here.

How the values were obtained:
P. aeruginosa M13513 [1] = system: P. aeruginosa M13513
Experimental: To analyze the stability of the molecule, the peptide was exposed to different temperatures for varying durations. The conditions tested involved incubation at 37 °C for 24 h, at 60 °C for 2 h, and at 100 °C for 15 min. Each condition was set up in a microtube with the peptide dissolved in sterile deionized water. As a control, the peptide was dissolved immediately before testing without temperature incubation. Afterward, the broth microdilution assay was conducted to assess its antimicrobial effectiveness. Additionally, the stability of the peptide in serum was examined. Three microtubes were prepared, each containing sterile deionized water with FCBS (fetal calf bovine serum) 25% (v/v) and the antimicrobial peptide. Two of these samples were incubated at 37 °C for 24 h or 2 h, while the third sample was prepared just before testing without any temperature incubation. As controls, serum alone and peptide without serum were used. The antimicrobial activity was subsequently evaluated through the broth microdilution assay. In order to assess the stability of the AMP, P6.2 was incubated at different temperature conditions or with FBS (fetal bovine serum) for different time periods. The temperature exposures were overnight (ON) at 37 °C, 120 min at 60 °C, and 15 min at 100 °C. […]

P. aeruginosa M13513 [2] = assay: Peptide stability at different temperatures, read out by broth microdilution MIC; type: physicochemical, Pseudomonas aeruginosa; set-up: unit not given beside the values; settings: peptide in sterile deionized water, then broth microdilution vs P. aeruginosa M13513
Experimental: To analyze the stability of the molecule, the peptide was exposed to different temperatures for varying durations. The conditions tested involved incubation at 37 °C for 24 h, at 60 °C for 2 h, and at 100 °C for 15 min. Each condition was set up in a microtube with the peptide dissolved in sterile deionized water. As a control, the peptide was dissolved immediately before testing without temperature incubation. Afterward, the broth microdilution assay was conducted to assess its antimicrobial effectiveness. Additionally, the stability of the peptide in serum was examined. Three microtubes were prepared, each containing sterile deionized water with FCBS (fetal calf bovine serum) 25% (v/v) and the antimicrobial peptide. Two of these samples were incubated at 37 °C for 24 h or 2 h, while the third sample was prepared just before testing without any temperature incubation. As controls, serum alone and peptide without serum were used. The antimicrobial activity was subsequently evaluated through the broth microdilution assay. In order to assess the stability of the AMP, P6.2 was incubated at different temperature conditions or with FBS (fetal bovine serum) for different time periods. The temperature exposures were overnight (ON) at 37 °C, 120 min at 60 °C, and 15 min at 100 °C. P6.2 was incubated with 25% FBS at 37 °C for 2 and 24 h before the experiment or directly at the moment of the experiment. Then, a microdilution assay was performed to test the antimicrobial activity.

## GLLRKWGKKWKEFLRRVWK-NH2 [Peptide P6.2]
P. aeruginosa M13513 [1]
  reduction of antimicrobial activity after serum incubation: two-fold dilution
P. aeruginosa M13513 [2]; 37 °C ON (24 h)
  MIC after temperature exposure: 32/64
P. aeruginosa M13513 [2]; 60 °C 120 min
  MIC after temperature exposure: 32/64
P. aeruginosa M13513 [2]; 100 °C 15 min
  MIC after temperature exposure: 32/64
